Measurements: US11142525B2 (Pfizer Inc., priority 2018, dated 2021)
pIC50, pKi: −log10 of the molar value.

How the values were obtained:
[1] = test system: phospho-SLP-76 (Ser376) in Jurkat cells; assay: Phospho-SLP-76 (Ser376) Homogeneous Time Resolved Fluorescence (HTRF) assay in Jurkat cells; format: cell-based; details: Homo sapiens, Phospho-SLP-76 (Ser376) HTRF, anti-CD3 stimulation, read-out: SLP76 Assay_IC50
How it was run: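 Phospho-SLP-76 in lysates was read by sandwich HTRF and IC50 derived by four-parameter nonlinear regression. Before lysis, cells had received compound for 30 min (11-point, 3-fold series from 10 μM, 0.1% DMSO), followed by anti-CD3 F(ab)2 complex (200 μg/mL, 15 min, 37 °C).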

[2] = molecular target: human full-length recombinant HPK1 (Homo sapiens (Human), UniProt Q92918); assay: HPK1 biochemical enzyme assay, microfluidic mobility shift assay (MSA); details: HPK1 mobility shift assay; read-out: HPK1 Enzyme Assay_Ki
human full-length recombinant HPK1, sequence (Q92918 whole entry): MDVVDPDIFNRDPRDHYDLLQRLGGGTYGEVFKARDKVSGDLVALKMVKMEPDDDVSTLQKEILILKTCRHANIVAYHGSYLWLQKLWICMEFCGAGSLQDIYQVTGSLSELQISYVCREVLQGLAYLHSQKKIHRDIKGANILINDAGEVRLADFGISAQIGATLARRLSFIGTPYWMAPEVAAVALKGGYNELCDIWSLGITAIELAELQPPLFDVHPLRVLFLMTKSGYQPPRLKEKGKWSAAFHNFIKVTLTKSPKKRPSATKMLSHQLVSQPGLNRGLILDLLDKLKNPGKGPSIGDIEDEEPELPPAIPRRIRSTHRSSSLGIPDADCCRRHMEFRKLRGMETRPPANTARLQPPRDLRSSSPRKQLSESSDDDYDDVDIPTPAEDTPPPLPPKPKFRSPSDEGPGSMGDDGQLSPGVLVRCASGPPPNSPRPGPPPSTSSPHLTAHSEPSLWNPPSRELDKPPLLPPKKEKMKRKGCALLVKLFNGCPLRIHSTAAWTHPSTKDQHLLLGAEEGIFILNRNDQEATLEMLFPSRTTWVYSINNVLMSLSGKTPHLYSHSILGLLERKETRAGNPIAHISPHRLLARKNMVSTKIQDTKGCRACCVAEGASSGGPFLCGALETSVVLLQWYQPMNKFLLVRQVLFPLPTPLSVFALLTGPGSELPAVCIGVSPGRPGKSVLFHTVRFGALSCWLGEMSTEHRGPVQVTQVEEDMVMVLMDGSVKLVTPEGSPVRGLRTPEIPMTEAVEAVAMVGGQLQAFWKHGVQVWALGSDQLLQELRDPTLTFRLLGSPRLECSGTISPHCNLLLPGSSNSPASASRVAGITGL

Compound	pIC50 [1]	pKi [2]
CCC(CC)n1cnnc1-c1cccc(N2Cc3c(cc(N4CCC[C@H]4C)nc3CNC)C2=O)n1 [Example 144, 4-[(methylamino)methyl]-6-[(2R)-2-methylpyrrolidin-1-yl]-2-{6-[4-(pentan-3-yl)-4H-1,2,4-triazol-3-yl]pyridin-2-yl}-2,3-dihydro-1H-pyrrolo[3,4-c]pyridin-1-one]	7.82	> 10.30
CCN(c1cc2c(c(CN)n1)CN(c1cccc(-c3nncn3C(C)C)n1)C2=O)C(C)C [Example 145, 4-(aminomethyl)-6-[ethyl(propan-2-yl)amino]-2-{6-[4-(propan-2-yl)-4H-1,2,4-triazol-3-yl]pyridin-2-yl}-2,3-dihydro-1H-pyrrolo[3,4-c]pyridin-1-one]	7.21	9.33
CCCn1cnnc1-c1cccc(N2Cc3c(cc(N(CC)C(C)C)nc3CN)C2=O)n1 [Example 146, 4-(aminomethyl)-6-[ethyl(propan-2-yl)amino]-2-[6-(4-propyl-4H-1,2,4-triazol-3-yl)pyridin-2-yl]-2,3-dihydro-1H-pyrrolo[3,4-c]pyridin-1-one]	6.97	9.04
CCC(CC)n1cnnc1-c1cccc(N2Cc3c(cc(N(C)C(C)C)nc3CN)C2=O)n1 [Example 150]	7.48	10.22
CCC(CC)n1cnnc1-c1cccc(N2Cc3c(cc(N4CCCC4(C)C)nc3CN)C2=O)n1 [Example 151]	7.85	10.00
CCC(CC)n1cnnc1-c1cccc(N2Cc3c(cc(N4CCC[C@@H]4C)nc3CN)C2=O)n1 [Example 152]	7.34	9.92
CCC(CC)n1cnnc1-c1cccc(N2Cc3c(cc(N(C)CC)nc3CN)C2=O)n1 [Example 153]	7.19	9.85
CCn1c(C)nnc1-c1cccc(N2Cc3c(cc(N4CCCC4(C)C)nc3CN)C2=O)n1 [Example 154]	6.82	9.82
CCCn1c(C)nnc1-c1cccc(N2Cc3c(cc(N4CCCC4(C)C)nc3CN)C2=O)n1 [Example 155]	7.26	9.80
Cc1nnc(-c2cccc(N3Cc4c(cc(N5CCC[C@H]5C)nc4CN)C3=O)n2)n1C(C)C [Example 156]	6.98	9.72
CCn1c(C)nnc1-c1cccc(N2Cc3c(cc(N4CCC[C@@H]4C)nc3CN)C2=O)n1 [Example 157]	7.07	9.64
CCn1c(C)nnc1-c1cccc(N2Cc3c(cc(N(C)C(C)C)nc3CN)C2=O)n1 [Example 158]	7.08	9.42
CCN(C)c1cc2c(c(CN)n1)CN(c1cccc(-c3nnc(C)n3C(C)C)n1)C2=O [Example 160]	6.57	9.32
CCCn1c(C)nnc1-c1cccc(N2Cc3c(cc(N(C)CC)nc3CN)C2=O)n1 [Example 161]	6.66	9.17
Cc1nnc(-c2cccc(N3Cc4c(cc(N5CCC[C@@H]5C)nc4CN)C3=O)n2)n1C(C)C [Example 162]	6.87	9.12
CCN(CC)c1cc2c(c(CN)n1)CN(c1cccc(-c3nnc(C)n3CC)n1)C2=O [Example 163]	6.71	9.06
Cc1nnc(-c2cccc(N3Cc4c(cc(N(C)C(C)C)nc4CN)C3=O)n2)n1C(C)C [Example 165]	6.94	9.55
CCC(CC)n1cnnc1-c1cccc(N2Cc3c(cc(N(CC)C(C)C)nc3CN)C2=O)n1 [Example 166]	6.98	9.30
CCN(c1cc2c(c(CN)n1)CN(c1cccc(-c3nnc(C)n3CC)n1)C2=O)C(C)C [Example 167]	6.41	9.15
CCn1c(C)nnc1-c1cccc(N2Cc3c(cc(N4[C@H](C)CC[C@H]4C)nc3CN)C2=O)n1 [Example 168]	6.52	9.12
Cc1nnc(-c2cccc(N3Cc4c(cc(N5[C@H](C)CC[C@H]5C)nc4CN)C3=O)n2)n1C(C)C [Example 169]	6.75	9.02
CCCn1c(C)nnc1-c1cccc(N2Cc3c(cc(N(CC)CC)nc3CN)C2=O)n1 [Example 170]	6.58	9.44
CCN(C)c1cc2c(c(CN)n1)CN(c1cccc(-c3nnc(C)n3CC)n1)C2=O [Example 171]	6.74	9.47
CCCn1c(C)nnc1-c1cccc(N2Cc3c(cc(N(C)C(C)C)nc3CN)C2=O)n1 [Example 172]	7.07	9.26
CC[C@H](C)n1cnnc1-c1cccc(N2Cc3c(cc(N(C)CC)nc3CNC)C2=O)n1 [Example 173]	7.37	10.22
CN(C)c1cc2c(c(CN)n1)CN(c1cccc(N3C(=O)OC[C@@H]3CF)n1)C2=O [Example 174]	6.68	9.43
CCCn1c(CC)nnc1-c1cccc(N2Cc3c(cc(N4CCC[C@H]4C)nc3CNC)C2=O)n1 [Example 175]	6.73	9.03
CNCc1nc(N(C)C)cc2c1CN(c1cccc(-c3nncn3CC(C)C)n1)C2=O [Example 177]	6.82	9.59
CCc1nnc(-c2cccc(N3Cc4c(cc(N5CCC[C@H]5C)nc4CN)C3=O)n2)n1CC [Example 185]	6.87	9.10
